In PubChem BioAssay AID330 (DTP/NCI, 2004):
“And” between values parts separate entries of the source, which are not always exact repeats. Equal entries are not always repeated. Toxic doses and inconclusive results are not listed. Rule for the calls: active = survival T/C of 150% or more; inactive = T/C below 125% in these data.

Tested on: P388 leukemia ip, CD2F1 mice, survival T/C
Assay: NCI In Vivo Anticancer Drug Screen. Data for tumor model P388 Leukemia (intraperitoneal) in CD2F1 (CDF1) mice
Conditions: endpoint: median survival time, higher = longer survival
Outline: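 Mice carrying the transplanted tumor received test compound or vehicle. Survival was recorded in each group, and the value is the treated-group measurement divided by that of the vehicle-treated control group.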

[1] = dose: 50.0 mg/kg/injection, schedule: Q01DX005 (ip), vehicle: saline with Tween-80
[2] = dose: 100.0 mg/kg/injection, schedule: Q01DX005 (ip), vehicle: saline with Tween-80
[3] = dose: 200.0 mg/kg/injection, schedule: Q01DX005 (ip), vehicle: saline with Tween-80
[4] = dose: 50.0 mg/kg/injection, schedule: Q01DX005 (ip), vehicle: Klucel (hydroxypropylcellulose) (HPC)
[5] = dose: 100.0 mg/kg/injection, schedule: Q01DX005 (ip), vehicle: Klucel (hydroxypropylcellulose) (HPC)
[6] = dose: 200.0 mg/kg/injection, schedule: Q01DX005 (ip), vehicle: Klucel (hydroxypropylcellulose) (HPC)
[7] = dose: 60.0 mg/kg/injection, schedule: Q01DX005 (ip), vehicle: Klucel (hydroxypropylcellulose) (HPC)
[8] = dose: 50.0 mg/kg/injection, schedule: Q01DX009 (ip), vehicle: saline with Tween-80
[9] = dose: 100.0 mg/kg/injection, schedule: Q01DX009 (ip), vehicle: saline with Tween-80
[10] = dose: 200.0 mg/kg/injection, schedule: Q01DX009 (ip), vehicle: saline with Tween-80
[11] = dose: 50.0 mg/kg/injection, schedule: Q01DX009 (ip), vehicle: Klucel (hydroxypropylcellulose) (HPC)
[12] = dose: 100.0 mg/kg/injection, schedule: Q01DX009 (ip), vehicle: Klucel (hydroxypropylcellulose) (HPC)
[13] = dose: 200.0 mg/kg/injection, schedule: Q01DX009 (ip), vehicle: Klucel (hydroxypropylcellulose) (HPC)
[14] = dose: 400.0 mg/kg/injection, schedule: Q01DX009 (ip), vehicle: saline with Tween-80
[15] = dose: 50.0 mg/kg/injection, schedule: Q01DX005 (ip), vehicle: saline
[16] = dose: 100.0 mg/kg/injection, schedule: Q01DX005 (ip), vehicle: saline
[17] = dose: 200.0 mg/kg/injection, schedule: Q01DX005 (ip), vehicle: saline

Measured: T/C

Cc1cccc(C)c1NC(=O)C(=O)/C(=C(\N)c1ccccc1)c1ccccc1
inactive: [1] 101 % of control | [2] 94 % of control | [3] 90 % of control

COc1ccccc1Nc1ncnc2sc3c(c12)CCCC3
inactive: [1] 101 % of control | [2] 95 % of control | [3] 101 % of control

O=S1Nc2ccccc2[C@H]2[C@@H]1[C@H]1O[C@@H]2c2ccccc21 (some centres not stated)
inactive: [4] 112 % of control | [5] 105 % of control | dose: 240.0 mg/kg/injection, schedule: Q01DX005 (ip), vehicle: Klucel (hydroxypropylcellulose) (HPC) 101 % of control

CC(=O)OCc1c([O-])on[n+]1-c1ccccc1
inactive: [4] 100 % of control | [5] 102 % of control | [6] 102 % of control

CCOC(=O)c1ccc(NC(=O)Nc2cccc(NC(C)=O)c2)cc1
inactive: dose: 15.0 mg/kg/injection, schedule: Q01DX005 (ip), vehicle: Klucel (hydroxypropylcellulose) (HPC) 92 % of control | dose: 30.0 mg/kg/injection, schedule: Q01DX005 (ip), vehicle: Klucel (hydroxypropylcellulose) (HPC) 91 % of control | [7] 89 % of control

O=C(N/N=C/c1ccc(/C=N/NC(=O)c2cccnc2)cc1)c1cccnc1
inactive: [8] 102 % of control | [9] 96 % of control | [10] 93 % of control

Cn1c(=O)c2nc(-c3ccccc3)c(-c3ccccc3)nc2n(C)c1=O
inactive: dose: 12.5 mg/kg/injection, schedule: Q01DX009 (ip), vehicle: saline with Tween-80 96 % of control | dose: 25.0 mg/kg/injection, schedule: Q01DX009 (ip), vehicle: saline with Tween-80 96 % of control | [8] 107 % of control | [9] 107 % of control

COC1C(OC(N)=O)C(O)C(Oc2ccc3c(O)c(NC(=O)c4ccc(O)c(CC=C(C)C)c4)c(=O)oc3c2C)OC1(C)C (configuration not stated)
inactive: dose: 25.0 mg/kg/injection, schedule: Q01DX009 (ip), vehicle: Klucel (hydroxypropylcellulose) (HPC) 100 % of control | [4] 109 % of control | [11] 95 % of control | [5] 106 % of control | [12] 100 % of control | [6] 109 % of control | [13] 103 % of control

O=[N+]([O-])c1ccc(OCCSc2ccccc2)cc1
inactive: [8] 90 % of control | [9] 98 % of control | [10] 100 % of control

CCCCCCC(=O)/C=C/c1cccc(OCc2ccc(Cl)cc2)c1
inactive: [8] 101 % of control | [9] 93 % of control | [10] 101 % of control

C(=N\n1cnnc1)/c1ccccc1/C=N/n1cnnc1
inactive: [9] 100 % of control | [10] 90 % of control | [14] 100 % of control

CN(c1ccccc1)S(=O)(=O)c1ccc2ccccc2c1O
inactive: dose: 100.0 mg/kg/injection, schedule: Q01DX001 (ip), vehicle: saline with Tween-80 101 % of control | dose: 200.0 mg/kg/injection, schedule: Q01DX001 (ip), vehicle: saline with Tween-80 100 % of control | dose: 400.0 mg/kg/injection, schedule: Q01DX001 (ip), vehicle: saline with Tween-80 91 % of control

CS/C(N)=N\NCCC(=O)Nc1c(C)cccc1C
inactive: dose: 100.0 mg/kg/injection, schedule: Q04DX002 (ip), vehicle: saline with Tween-80 100 % of control | dose: 200.0 mg/kg/injection, schedule: Q04DX002 (ip), vehicle: saline with Tween-80 91 % of control | dose: 400.0 mg/kg/injection, schedule: Q04DX002 (ip), vehicle: saline with Tween-80 91 % of control

Fc1ccc(CSC(=S)Nc2ccc(I)cc2)cc1
inactive: dose: 50.0 mg/kg/injection, schedule: Q01DX009 (ip), vehicle: suspension in saline 97 % of control | dose: 100.0 mg/kg/injection, schedule: Q01DX009 (ip), vehicle: suspension in saline 93 % of control | dose: 200.0 mg/kg/injection, schedule: Q01DX009 (ip), vehicle: suspension in saline 103 % of control

CCOC(=O)/C=C/C(=O)NNS(=O)(=O)CCC(N)C(=O)O (configuration not stated)
inactive: dose: 12.5 mg/kg/injection, schedule: Q01DX009 (ip), vehicle: water 101 % of control | dose: 25.0 mg/kg/injection, schedule: Q01DX009 (ip), vehicle: water 95 % of control | dose: 50.0 mg/kg/injection, schedule: Q01DX009 (ip), vehicle: water 100 % of control | dose: 100.0 mg/kg/injection, schedule: Q01DX009 (ip), vehicle: water 116 % of control

CC(NC(=O)CNC(=O)CN)C(=O)O (configuration not stated)
inactive: dose: 25.0 mg/kg/injection, schedule: Q01DX005 (ip), vehicle: saline 102 % of control | [15] 92 % of control | [16] 94 % of control | [17] 94 % of control

COc1c(OCC(O)CN2CCOCC2)c2c(C)coc2c2ccoc12 (configuration not stated)
inactive: [7] 100 % of control | dose: 120.0 mg/kg/injection, schedule: Q01DX005 (ip), vehicle: Klucel (hydroxypropylcellulose) (HPC) 105 % of control

COc1ccc(CCN2C(=O)C(=O)N(C(C)C)C2=O)cc1OC
inactive: [11] 86 % of control | [12] 91 % of control | [13] 95 % of control

Cc1nc2ccccc2c(=O)n1/N=C1\C(=O)N(C)c2ccccc21
inactive: dose: 12.5 mg/kg/injection, schedule: Q01DX005 (ip), vehicle: Klucel (hydroxypropylcellulose) (HPC) 100 % of control | dose: 25.0 mg/kg/injection, schedule: Q01DX005 (ip), vehicle: Klucel (hydroxypropylcellulose) (HPC) 96 % of control | [4] 91 % of control and 96 % of control | [5] 105 % of control

C1=CC(=C(c2ccccc2)c2ccccc2)C=C1
inactive: [11] 98 % of control | [8] 107 % of control | [12] 100 % of control | [9] 104 % of control | [13] 101 % of control | [10] 102 % of control | [14] 102 % of control

N#CC1(c2ccccc2)C(c2ccccc2)=CC(=C2C(=O)NC(=O)N(c3ccccc3)C2=O)C=C1c1ccccc1 (configuration not stated)
inactive: [4] 100 % of control | [5] 104 % of control | [6] 98 % of control

CC(C)(C#N)NCCCNC(C)(C)C#N
inactive: [15] 100 % of control | [16] 97 % of control | [17] 95 % of control

COC(=O)Nc1c2c(nc3ccccc13)-c1ccccc1C(C)(C)C2OC (configuration not stated)
inactive: [4] 99 % of control | [5] 108 % of control | [6] 104 % of control

O=C(NN(Cn1c(=S)sc2ccccc21)Cn1c(=S)sc2ccccc21)c1ccccc1O
inactive: [4] 89 % of control | [5] 91 % of control | [6] 98 % of control

CN1CCC(O)(C(=O)c2ccccc2)CC1
inactive: dose: 100.0 mg/kg/injection, schedule: Q04DX002 (ip), vehicle: saline 99 % of control and 104 % of control | dose: 200.0 mg/kg/injection, schedule: Q04DX002 (ip), vehicle: saline 103 % of control

O=c1ccc2ccc3occc(=O)c3c2o1
inactive: [1] 106 % of control | [2] 108 % of control | [3] 98 % of control

c1ccc2[nH]c(-c3nc4ccccc4s3)cc2c1
inactive: [11] 106 % of control | [12] 108 % of control | [13] 98 % of control

O=C1c2c(c(Cl)c3ccccc3c2O)C(=O)C2C3C=CC(C3)C12 (configuration not stated)
inactive: [1] 96 % of control | [2] 89 % of control | [3] 89 % of control

COc1cc2c(cc1O)CC1c3c(cc(O)c(OC)c3-2)CCN1C (configuration not stated)
inactive: [1] 98 % of control | [2] 87 % of control

Cc1ccc(S(=O)(=O)N/N=C/c2c(-c3ccccc3)nc3n2CCS3)cc1
inactive: dose: 100.0 mg/kg/injection, schedule: Q01DX001 (ip), vehicle: Klucel (hydroxypropylcellulose) (HPC) 99 % of control | dose: 200.0 mg/kg/injection, schedule: Q01DX001 (ip), vehicle: Klucel (hydroxypropylcellulose) (HPC) 93 % of control | dose: 400.0 mg/kg/injection, schedule: Q01DX001 (ip), vehicle: Klucel (hydroxypropylcellulose) (HPC) 94 % of control

CC1OC2=C(C(=O)c3ccccc3C2=O)C(O)C1O (configuration not stated)
inactive: dose: 25.0 mg/kg/injection, schedule: Q01DX001 (ip), vehicle: Klucel (hydroxypropylcellulose) (HPC) 96 % of control | dose: 50.0 mg/kg/injection, schedule: Q01DX001 (ip), vehicle: Klucel (hydroxypropylcellulose) (HPC) 96 % of control

Cc1ccc(CC2C=CCN2)cc1 (configuration not stated)
inactive: dose: 100.0 mg/kg/injection, schedule: Q01DX001 (ip), vehicle: distilled water + alcohol 99 % of control | dose: 200.0 mg/kg/injection, schedule: Q01DX001 (ip), vehicle: distilled water + alcohol 100 % of control

C/C(=C/C=C(c1ccccc1)c1ccccc1)C1CCC2C3CCC4CC5CCC4(C)C3(O5)C(=O)CC12C (configuration not stated)
inactive: dose: 6.25 mg/kg/injection, schedule: Q04DX002 (sc), vehicle: steriod suspending solution 102 % of control | dose: 12.5 mg/kg/injection, schedule: Q04DX002 (sc), vehicle: steriod suspending solution 105 % of control | dose: 25.0 mg/kg/injection, schedule: Q04DX002 (sc), vehicle: steriod suspending solution 101 % of control | dose: 50.0 mg/kg/injection, schedule: Q04DX002 (sc), vehicle: steriod suspending solution 101 % of control
